{"source": "patent US20220213126A1", "about": "“SMALL MOLECULE AUTOPHAGY INDUCERS FOR THE TREATMENT OF CANCER AND NEURODEGENERATIVE DISEASES” (John Wayne Cancer Institute, priority 2019, published 2022)", "key": {"[1]": {"assay": "Metabolic stability in human liver microsomes", "assay_type": "in vitro ADME", "settings": "for microsomal CLint: human, human liver microsomes"}, "wild-type C. elegans": {"test_system": "wild-type C. elegans", "assay": "C. elegans lifespan", "assay_type": "in vivo", "method": "Synchronized populations of wild-type L1 C. elegans hatched overnight were transferred to agar plates followed by VMY-BC-1 was added freshly from a 5 mM stock to the NGM media. Water was used as control. The L4 population of worms was randomly split to control or treatment groups in a density of about 20-30 worms per 6 cm plate dish.\nThe first day of adulthood was considered day one. In all the experiments with late-onset administration of VMY-BC-1, synchronized L4 animals were moved to the media supplemented with 5′-fluorodeoxyuridine (FUDR, Cayman chemicals) at a final concentration of 1 μM for 2 days to prevent reproduction, then were moved to FUDR-free NGM plates until the final treatments at day 10. The animals that crawled off the plate, ruptured, or died from internal hatching were censored. Worms were transferred to fresh plates every day after reaching adulthood, and every 2 days after reaching 10 days of age. Prodding test was used to count the number of dead worms. Survival curve was plotted using Prism 7 and the significance of the curves calculated by Log-rank (Mantel-Cox) test.\nSynchronized populations of polyQ-expressing C. elegans were grown for 72 hours on media containing 1 μM VMY-BC-1. PolyQ aggegrative vacuoles were detected using confocal microscopy. PolyQ aggregations were decreased compared to vehicle (DMSO) (FIG. 21A). […]"}}, "note": "Where two headings read alike, the source gives them in different places."}
{"smiles": "COc1ccc(/C=C/c2cc(OC)cc(B(O)O)c2)cc1", "note": "[VMY-BC-1]", "values": [{"measurement": "Remaining at the end of incubation in human liver microsomes", "setting": "[1]; 30 min incubation", "result": 40, "unit": "%"}, {"measurement": "microsomal CLint", "setting": "[1]; Table 3, read-out: Metabolic stability in human liver microsome (CLint)", "result": 41.3, "unit": "µL/min/mg"}, {"measurement": "microsomal CLint", "setting": "[1]; read-out: Intrinsic clearance in human liver microsomes", "result": 43, "unit": "µL/min/mg"}, {"measurement": "Maximal median lifespan extension", "setting": "wild-type C. elegans; 1 μM", "result": "~25", "unit": "%"}, {"measurement": "Lifespan", "setting": "wild-type C. elegans; 0.1 to 10 μM", "result": "dose-dependent lifespan extension"}]}
